# pEC50: −log10 of the molar value. Where two headings read alike, the source gives them in different places.
# System: SARS-CoV-2 strains and variants (wild-type, Delta, Omicron BA.1.1, BA.2.3, BA.4, BA.5)
# Experiment: Antiviral CPE assay in Vero E6 cells, summary over all tested strains
# Type: cell-based
# Conditions: Severe acute respiratory syndrome coronavirus 2, Vero C1008
SMILES,pEC50 (read-out: EC50 for the tested SARS-CoV-2 strains and variants),pEC50 (read-out: EC50 values against a range of SARS-CoV-2 variants)
"CC(C)(C)[C@H](NC(=O)C(F)(F)F)C(=O)N1C[C@H]2[C@@H]([C@H]1C(=O)N[C@H](C#N)C[C@@H]1CCNC1=O)C2(C)C [PF-07321332, reference compound]",~7.30,
"O=C(O)C[C@@H]1C(=O)O[C@H]2[C@@H]3OC(=O)c4cc(O)c(O)c(O)c4-c4c(cc(O)c(O)c4O)C(=O)OC[C@H]2O[C@@H](OC(=O)c2cc(O)c(O)c(O)c2)[C@@H]3OC(=O)c2cc(O)c(O)c3c2[C@H]1[C@H](O)C(=O)O3 [CHLA, chebulagic acid]",,> 5.70

# From article PMC12648101, “Targeting SARS-CoV-2 main protease for the discovery of a broad-spectrum COVID-19 inhibitor by intensive multi-tiered validation” (Acta Pharmaceutica Sinica. B, 2025)
